For series [1], the system named is HBeAg. Briefly: PHH natural infection assay, HBeAg (alphalisa). In kind it is cell-based, HBV. As to conditions: Hepatitis B virus, Hepatocyte, 72 h, read-out: HBeAg IC50. The procedure: (§1) Detailed procedures regarding primary human hepatocyte (PHH) HBV natural infection assay are described as below. One tube of frozen PHH (10 million cells) is thawed in 37° C. water bath and then transferred to 20 mL of PHH thawing medium (Sigma, InVitroGRO HT Medium, Cat. S03319) with gently mixing. The cells were then centrifuged at […] for 5 min, the supernatant was discarded and the tube was refilled with 25 mL of PHH plating medium (Sigma, InVitroGRO CP Medium, Cat. S03317). The tube was shaken very gently to re-suspend all cells, and then 50 μl of cells were transferred to each well 384-well collagen I coated plate with appropriate liquid handling equipment, e.g. Integra VIAFLO384 or Agilent Bravo. The cells were then cultured for 24 hours in a cell incubator. For HBV infection, after PHH attachment on the culture plate, the plating medium was removed and replenished with PHH culture medium containing HBV virus. The PHH culture medium was prepared with Dulbecco's Modified Eagle Medium (DMEM)/F12 (1:1 in volume ratio) containing 10% fetal bovine serum (Gibco, Cat. 10099141), 5 ng/mL human epidermal growth factor (Gibco, Cat.PHG031IL), 20 ng/mL dexamethasone (Sigma, Cat.D4902-100 mg), 250 ng/mL human recombinant insulin (Gibco, Cat.41400045) and 100 U/mL penicillin. HBV virus at 200 genome equivalent (GE) per cell with 4% PEG8000 (Sigma, Cat.P1458) containing culture medium were added to the PHH culture medium for infection. The cells were then cultured for 24 hours in cell incubator. Then the cell culture supernatant was removed. The HBV-infected PHH were cultured with sandwich culture method with PHH culture medium containing 1% DMSO and 0.25 mg/mL matrix gel for 72 hours. The supernatant was then refreshed with PHH culture medium containing different concentrations of testing compounds for two times with 72-hour interval. At the end of treatment, the supernatant was collected for viral markers measurements, including HBsAg, HBeAg, HBV DNA and cytotoxicity. HBsAg and HBeAg were detected using alphalisa method using their specific antibodies. For HBV DNA detection, HBV DNA Quantitative Fluorescence Diagnostic Kit (Sansure Biotech Inc.) was used following the manufacture's protocol. Cytotoxicity was determined using Cell Counting Kit-8 (CCK8, Dojindo Molecular Technologies, Inc.).
(§2) The compounds of the present invention were tested for their capacity to inhibit HBsAg and HBeAg as described herein.
A general note: Bead proximity is the source of the signal in Alpha formats.

Series [2] concerns HBsAg. Briefly: PHH natural infection assay, HBsAg (alphalisa). It counts as cell-based, HBV. As to conditions: Hepatitis B virus, Hepatocyte, 72 h, read-out: HBsAg IC50. The procedure: as §1, §2
A short description of series [3]: Cytotoxicity in PHH natural infection assay (Cell Counting Kit-8). In kind it is cell-based. The note with it: HBV-infected primary human hepatocytes, CCK8. Here is the method: as §1

Take `Clc1ccc(-n2nc3ccc(NCC4CC4)cc3n2)cc1` [Example 25, 2-(4-Chlorophenyl)-N-(cyclopropylmethyl)benzotriazol-5-amine]: the IC50 (as a rule, the point on the concentration scale where inhibition reaches its midpoint) in series [1] was 7.52 µM; in series [2], 5.95 µM. Besides, the CC50 (in general, the concentration that lowers cell viability or growth by half) at 144 h in series [3] was greater than 100 µM.
The corresponding values for `COCCS(=O)(=O)c1ccc(-n2nc3ccc(N)cc3n2)cc1` [Example 9, 2-[4-(2-Methoxyethylsulfonyl)phenyl]benzotriazol-5-amine] are 7.93 µM, 4.07 µM and greater than 100 µM.
For `O=C(Nc1ccc2nn(-c3ccc(F)cc3)nc2c1)C1CCCCO1` (stereo not drawn) [Example 42, N-[2-(4-fluorophenyl)benzotriazol-5-yl]tetrahydropyran-2-carboxamide], in that order: 6.12 µM, 6.38 µM and greater than 100 µM.
On to `O=C(NC(=S)Nc1ccc2nn(-c3ccc(Cl)cc3)nc2c1)c1ccccc1` [Example 58, N-[[2-(4-chlorophenyl)benzotriazol-5-yl]carbamothioyl]benzamide], for which the figures for the IC50 in series [1] and in series [2] were 1.27 µM and 1.17 µM, respectively. For the same compound, in series [3], the cytotoxic concentration (CC50) at 144 h is greater than 100 µM.
The corresponding values for `CNc1ccc2nn(-c3ccc(Cl)cc3)nc2c1` [Example 12, 2-(4-Chlorophenyl)-N-methyl-benzotriazol-5-amine] are 2.44 µM, 1.83 µM and greater than 100 µM.
The corresponding values for `COCCCNc1ccc2nn(-c3ccc(F)cc3)nc2c1` [Example 22, 2-(4-Fluorophenyl)-N-(3-methoxypropyl)benzotriazol-5-amine] are 6.4 µM, 3.27 µM and greater than 100 µM.
In the case of `NC(=S)Nc1ccc2nn(-c3ccc(Cl)cc3)nc2c1` [Example 53, [2-(4-Chlorophenyl)benzotriazol-5-yl]thiourea], the IC50 in series [1] worked out at 2.87 µM; in series [2] it was 3.37 µM. In series [3], this compound came in with a CC50 at 144 h greater than 100 µM.
In the case of `Clc1ccc(-n2nc3ccc(NCC4CCC4)cc3n2)cc1` [Example 24, 2-(4-Chlorophenyl)-N-(cyclobutylmethyl)benzotriazol-5-amine], the concentration for half-maximal inhibition (IC50) in series [1] was found to be 8.9 µM; in series [2], 7.72 µM. Moreover, the CC50 at 144 h in series [3] is greater than 100 µM.
For `CS(=O)(=O)c1ccc(-n2nc3ccc(N)cc3n2)cc1` [Example 7, 2-(4-Methylsulfonylphenyl)benzotriazol-5-amine], in that order: 3.21 µM, 5.67 µM and greater than 100 µM.
For `CC(=O)NC(=S)Nc1ccc2nn(-c3ccc(Cl)cc3)nc2c1` [Example 55, N-[[2-(4-chlorophenyl)benzotriazol-5-yl]carbamothioyl]acetamide], in that order: 5.1 µM, 2.97 µM and greater than 100 µM.
Take `CC(C)CS(=O)(=O)c1ccc(-n2nc3ccc(N)cc3n2)cc1` [Example 10, 2-(4-Isobutylsulfonylphenyl)benzotriazol-5-amine]: the IC50 came to 5.56 µM in series [1] and 9.57 µM in series [2]. This compound yielded a CC50 at 144 h in series [3] greater than 100 µM.
On to `O=C(Nc1ccc2nn(-c3ccc(F)cc3)nc2c1)C1CCOCC1` [Example 41, N-[2-(4-fluorophenyl)benzotriazol-5-yl]tetrahydropyran-4-carboxamide], for which the results for the IC50 in series [1] and in series [2] were 2.31 µM and 2.19 µM, respectively. In series [3], the CC50 at 144 h was greater than 100 µM.
As for `CCNc1ccc2nn(-c3ccc(Cl)cc3)nc2c1` [Example 13, 2-(4-Chlorophenyl)-N-ethyl-benzotriazol-5-amine], the figures for the IC50 in series [1] and in series [2] were 1.6 µM and 1.3 µM, respectively. The same compound returned a CC50 at 144 h in series [3] greater than 100 µM.
The corresponding values for `Cc1cc2nn(-c3ccc(Cl)cc3)nc2cc1NC(N)=S` [Example 60, [2-(4-Chlorophenyl)-6-methyl-benzotriazol-5-yl]thiourea] are 2.31 µM, 2.28 µM and greater than 100 µM.
The corresponding values for `Clc1ccc(-n2nc3ccc(NCC4CCCC4)cc3n2)cc1` [Example 26, 2-(4-Chlorophenyl)-N-(cyclopentylmethyl)benzotriazol-5-amine] are 3.08 µM, 8.79 µM and greater than 100 µM.
For `Clc1ccc(-n2nc3ccc(NC4CCCC4)cc3n2)cc1` [Example 31, 2-(4-Chlorophenyl)-N-cyclopentyl-benzotriazol-5-amine], in that order: 11.9 µM, 8.86 µM and greater than 100 µM.
On to `O=C(Nc1ccc2nn(-c3ccc(Cl)cc3)nc2c1)C1CCCCC1` [Example 39, N-[2-(4-chlorophenyl)benzotriazol-5-yl]cyclohexanecarboxamide], for which the IC50 was 2.89 µM in series [1] and 3.91 µM in series [2]. The CC50 at 144 h in series [3] is greater than 100 µM.
The corresponding values for `O=C(Nc1ccc2nn(-c3ccc(Cl)cc3)nc2c1)C1CCOC1` (stereo not drawn) [Example 48, N-[2-(4-chlorophenyl)benzotriazol-5-yl]tetrahydrofuran-3-carboxamide] are 3.12 µM, 4.81 µM and greater than 100 µM.
For `Fc1ccc(-n2nc3ccc(NCC4CCOC4)cc3n2)cc1` (stereo not drawn) [Example 20, 2-(4-Fluorophenyl)-N-(tetrahydrofuran-3-ylmethyl)benzotriazol-5-amine], in that order: 7.3 µM, 5.66 µM and greater than 100 µM.
Consider `COCCN(C)c1ccc2nn(-c3ccc(Cl)cc3)nc2c1` [Example 35, 2-(4-Chlorophenyl)-N-(2-methoxyethyl)-N-methyl-benzotriazol-5-amine], for which the IC50 was 3.5 µM in series [1] and 2 µM in series [2]. In series [3], the cytotoxic concentration (CC50) at 144 h was greater than 100 µM.
With `CNC(=S)Nc1ccc2nn(-c3ccc(Cl)cc3)nc2c1` [Example 54, 1-[2-(4-chlorophenyl)benzotriazol-5-yl]-3-methyl-thiourea], the values for the IC50 in series [1] and in series [2] were 4.59 µM and 2.68 µM, respectively. The compound also displayed a CC50 at 144 h in series [3] greater than 100 µM.
The corresponding values for `O=C(NC(=S)Nc1ccc2nn(-c3ccc(Cl)cc3)nc2c1)C1CCCC1` [Example 56, N-[[2-(4-chlorophenyl)benzotriazol-5-yl]carbamothioyl]cyclopentanecarboxamide] are 7.5 µM, 3.45 µM and greater than 100 µM.
The corresponding values for `O=C(Nc1ccc2nn(-c3ccc(Cl)cc3)nc2c1)C1CCCCO1` (stereo not drawn) [Example 46, N-[2-(4-chlorophenyl)benzotriazol-5-yl]tetrahydropyran-2-carboxamide] are 1.14 µM, 2.68 µM and greater than 100 µM.
The corresponding values for `Nc1ccc2nn(-c3cccc(F)c3)nc2c1` [Example 5, 2-(3-Fluorophenyl)benzotriazol-5-amine] are 6.72 µM, 3.57 µM and greater than 100 µM.
For the compound `COCCNc1ccc2nn(-c3cccc(Cl)c3)nc2c1` [Example 18, 2-(3-Chlorophenyl)-N-(2-methoxyethyl)benzotriazol-5-amine], the half-maximal inhibitory concentration (IC50) amounted to 6.83 µM in series [1] and 4.5 µM in series [2]. The CC50 at 144 h in series [3] is greater than 100 µM.
Take `COCCNc1ccc2nn(-c3cccc(OC)c3)nc2c1` [Example 17, N-(2-methoxyethyl)-2-(3-methoxyphenyl)benzotriazol-5-amine]: the IC50 in series [1] was 15.4 µM; in series [2], 8.06 µM. Also, the CC50 at 144 h in series [3] was greater than 100 µM.
For `Cc1nc(Nc2ccc3nn(-c4ccc(Cl)cc4)nc3c2)sc1C` [Example 65, N-[2-(4-chlorophenyl)benzotriazol-5-yl]-4,5-dimethyl-thiazol-2-amine], in that order: 2.91 µM, 2.67 µM and greater than 100 µM.
For `Clc1ccc(-n2nc3ccc(NCC4CCCO4)cc3n2)cc1` (stereo not drawn) [Example 27, 2-(4-Chlorophenyl)-N-(tetrahydrofuran-2-ylmethyl)benzotriazol-5-amine], in that order: 11.7 µM, 6.07 µM and greater than 100 µM.
The corresponding values for `Nc1ccc2nn(-c3ccc(Cl)cc3)nc2c1` [Example 2, 2-(4-Chlorophenyl)benzotriazol-5-amine] are 5.29 µM, 7.97 µM and greater than 100 µM.

Values taken from patent US20230286927A1, “2-PHENYLBENZOTRIAZOL-5-AMINE DERIVATIVES FOR THE TREATMENT AND PROPHYLAXIS OF HEPATITIS B VIRUS (HBV) INFECTION” (priority 2020, published 2023).
